Measurements published in patent US20090280160A1, “PHENYLEPHRINE PHARMACEUTICAL FORMULATIONS AND COMPOSITIONS FOR TRANSMUCOSAL ABSORPTION” (Schering-Plough Healthcare Products, Inc., priority 2007, published 2009).
Entries after “also recorded” stand apart in the source; their conditions may differ.

Key:
[1] = in vivo; cited from earlier work
[2] = cited from earlier work
[3] = molecular target: T1, α1b adrenoreceptor (Homo sapiens, UniProt P35368); assay: Competition binding, [3H]-prazosin, α1b CHO cell membranes; conditions: for inhibition of 3H-prazosin binding, α1b (in words): CHO cell membranes
T1 construct: expressed in transfected cells
T1 sequence (P35368 1-520): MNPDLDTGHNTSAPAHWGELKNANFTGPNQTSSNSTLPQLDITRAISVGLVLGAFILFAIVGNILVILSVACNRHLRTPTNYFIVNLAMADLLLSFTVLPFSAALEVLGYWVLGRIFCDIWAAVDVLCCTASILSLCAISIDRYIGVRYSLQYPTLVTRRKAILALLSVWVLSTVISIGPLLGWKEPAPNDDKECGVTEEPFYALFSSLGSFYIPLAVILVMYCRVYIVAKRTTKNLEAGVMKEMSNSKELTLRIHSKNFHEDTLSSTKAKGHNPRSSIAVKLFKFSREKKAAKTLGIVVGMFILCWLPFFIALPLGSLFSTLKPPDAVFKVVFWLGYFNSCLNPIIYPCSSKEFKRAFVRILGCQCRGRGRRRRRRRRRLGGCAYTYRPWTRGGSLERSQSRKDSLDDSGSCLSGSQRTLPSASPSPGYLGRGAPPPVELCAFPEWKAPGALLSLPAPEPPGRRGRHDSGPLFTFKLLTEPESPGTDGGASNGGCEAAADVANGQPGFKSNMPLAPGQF
Method: (§1) The affinity and activity of phenylephrine metabolites were evaluated in human recombinant α1 and α2 adrenoreceptor binding and activity assays. […] Affinity of the metabolites was determined by receptor binding assays. Functional activity of the metabolites was assessed using an [^35S]-GTPγS binding exchange assay for the α2 receptor subtypes and a cell-based calcium flux response for the α1 receptor subtypes.
(§2) Competition Binding Assays
(§3) Competition binding assays for the α2 adrenoreceptors were performed using 20 μg membrane protein per well in binding buffer (75 mM Tris-HCl pH 7.4, 12.5 mM MgCl2, […] EDTA, 0.2% bovine serum albumin). […] Binding was terminated by rapid filtration through GF/C unifilter plates, presoaked with 0.3% polyethylenimine, with five washes with 0.5 ml cold 50 mM Tris-HCl ph 7.4, using a Packard Filtermate Harvester. After drying, bound radioactivity was determined by liquid scintillation counting (Packard TopCount) with Microscint 20, 50 μl/well. Binding data were analyzed using GraphPad Prism.
(§4) Each metabolite was evaluated in each assay in at least 2 independent experiments and a representative assay of each metabolite/assay combination is shown.

[4] = molecular target: T1, α1b adrenoreceptor; assay: Cellular calcium flux (FLIPR), α1b expressing CHO cells; assay type: cell-based; conditions: α1b expressing CHO cells
Method: as §1
(§5) Intracellular calcium levels were measured using a fluorometric imaging plate reader (FLIPR). Cells expressing α1 adrenoreceptors were cultured overnight at 15,000 cells/well in 96 well black-wall clear bottom plates (Packard). Adherent cells were loaded for 1 hour at 37° C. using the FLIPR Calcium Plus Assay Kit (Molecular Probes, Eugene, Oreg.), which included 2.5 mM probenecid (Sigma). Compounds (at 10 mM in 100% DMSO) were diluted in diluting buffer (HBSS, 20 mM HEPES, 2.5 mM probenecid, 0.5% BSA, pH 7.4). A titration of norepinephrine was included in every experiment and norepinephrine (at 1 μM) was also used as a plate standard on each assay plate. Cells were maintained at 37° C. throughout all calcium measurements. Fluorescence data was collected at 1 second interval for 60 seconds, followed by collection at 2 second intervals for 30 seconds. Background fluorescence was quantitated in wells containing cells with no additions and was subtracted from all experimental samples. All conditions were done in quadruplicate. Non-linear regression analysis using GraphPad Prism was used to calculate EC50 values.
as §4

[5] = molecular target: T2, α2c adrenoreceptor (Homo sapiens, UniProt P18825); assay: Competition binding, [3H]-UK14304, α2c CHO cell membranes; conditions: for inhibition of [3H]-UK14304 binding, α2c (in words): CHO cell membranes
T2 construct: expressed in transfected cells; host or cells: CHO (Chinese hamster ovary) cells, membranes
T2 sequence (P18825 1-462): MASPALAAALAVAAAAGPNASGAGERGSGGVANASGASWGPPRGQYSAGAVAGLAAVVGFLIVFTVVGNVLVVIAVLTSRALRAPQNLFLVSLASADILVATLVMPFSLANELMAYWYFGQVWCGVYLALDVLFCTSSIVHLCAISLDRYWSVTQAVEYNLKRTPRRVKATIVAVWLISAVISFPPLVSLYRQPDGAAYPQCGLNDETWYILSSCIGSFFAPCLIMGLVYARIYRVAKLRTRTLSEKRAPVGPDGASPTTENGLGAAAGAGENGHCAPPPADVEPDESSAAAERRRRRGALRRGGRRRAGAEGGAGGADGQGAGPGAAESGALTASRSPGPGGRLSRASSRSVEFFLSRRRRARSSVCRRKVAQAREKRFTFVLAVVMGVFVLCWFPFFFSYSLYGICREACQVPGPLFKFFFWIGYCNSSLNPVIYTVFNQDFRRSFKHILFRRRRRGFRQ
Method: as §1, §2, §3, §4

[6] = molecular target: T3, α1a adrenoreceptor (Homo sapiens, UniProt P35348); assay: Cellular calcium flux (FLIPR), α1a expressing CHO cells; assay type: cell-based; conditions: α1a expressing CHO cells
T3 construct: expressed in transfected cells
T3 sequence (P35348 1-466): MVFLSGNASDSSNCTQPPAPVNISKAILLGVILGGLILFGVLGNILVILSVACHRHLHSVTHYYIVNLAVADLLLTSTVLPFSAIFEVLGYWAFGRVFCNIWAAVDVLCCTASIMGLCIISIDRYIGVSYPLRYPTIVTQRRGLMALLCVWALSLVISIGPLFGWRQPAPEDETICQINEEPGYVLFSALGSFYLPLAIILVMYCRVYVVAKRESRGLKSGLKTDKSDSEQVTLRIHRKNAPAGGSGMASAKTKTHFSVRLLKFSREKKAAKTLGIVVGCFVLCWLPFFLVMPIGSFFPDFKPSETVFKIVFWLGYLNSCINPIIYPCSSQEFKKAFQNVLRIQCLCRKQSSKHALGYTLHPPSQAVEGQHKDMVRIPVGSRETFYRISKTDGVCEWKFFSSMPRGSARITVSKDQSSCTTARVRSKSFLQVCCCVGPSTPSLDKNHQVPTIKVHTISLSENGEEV
Method: as §1, §5, §4

[7] = molecular target: T4, α2b adrenoreceptor (Homo sapiens, UniProt P18089); assay: Competition binding, [3H]-UK14304, α2b CHO cell membranes; conditions: for inhibition of [3H]-UK14304 binding, α2b (in words): CHO cell membranes
T4 construct: expressed in transfected cells; host or cells: CHO (Chinese hamster ovary) cells, membranes
T4 sequence (P18089 1-450): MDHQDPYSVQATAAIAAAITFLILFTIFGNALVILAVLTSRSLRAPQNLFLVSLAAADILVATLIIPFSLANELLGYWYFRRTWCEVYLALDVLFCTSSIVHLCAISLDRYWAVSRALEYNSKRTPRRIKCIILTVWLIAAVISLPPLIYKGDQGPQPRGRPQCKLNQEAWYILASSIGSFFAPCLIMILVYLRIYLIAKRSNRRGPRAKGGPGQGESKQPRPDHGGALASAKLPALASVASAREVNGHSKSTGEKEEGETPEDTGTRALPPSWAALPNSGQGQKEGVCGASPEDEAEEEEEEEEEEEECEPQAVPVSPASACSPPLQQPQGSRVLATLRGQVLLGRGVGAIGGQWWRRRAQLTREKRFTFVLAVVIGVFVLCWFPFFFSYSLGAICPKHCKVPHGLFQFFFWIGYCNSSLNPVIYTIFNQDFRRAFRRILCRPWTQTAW
Method: as §1, §2, §3, §4

[8] = molecular target: T3, α1a adrenoreceptor; assay: Competition binding, [3H]-prazosin, α1a CHO cell membranes; conditions: for inhibition of 3H-prazosin binding, α1a (in words): CHO cell membranes
[9] = molecular target: T4, α2b adrenoreceptor; assay: [35S]-GTPγS binding exchange, α2b CHO cell membranes; assay type: biochemical; conditions: for stimulation of [35S]-GTPγS binding, α2b (in words): CHO cell membranes
Method: as §1
(§6) Assay buffer was 75 mM Tris-HCl pH 7.4, 12.5 mM MgCl2, 2 mM EDTA and 1 μM GDP. Plates were counted on a Packard TopCount. The percent increase over basal binding of [^35S]-GTPγS, a measure of efficacy, was calculated as follows: 100×[[mean total sample cpm−basal cpm]÷by basal cpm]. Basal cpm was defined as the mean cpm in the absence of agonist compound minus the mean non-specific binding cpm.
as §4

[10] = molecular target: T2, α2c adrenoreceptor; assay: [35S]-GTPγS binding exchange, α2c CHO cell membranes; assay type: biochemical; conditions: for stimulation of [35S]-GTPγS binding, α2c (in words): CHO cell membranes
Method: as §1, §6, §4

[11] = oral, approximately 24 mg of PE, healthy volunteers; cited from earlier work
[12] = listed as phenylephrine sulfate
[13] = at 100 μM (highest concentration evaluated)

Compound	half-life (t1/2) / elimination half-life [1] [h]	inhibition of 3H-prazosin binding, α1b (in words) [3]	increase in intracellular calcium, α1b calcium assay (in words) [4]	inhibition of [3H]-UK14304 binding, α2c (in words) [5]	increase in intracellular calcium, α1a calcium assay (in words) [6]	inhibition of [3H]-UK14304 binding, α2b (in words) [7]	inhibition of 3H-prazosin binding, α1a (in words) [8]	stimulation of [35S]-GTPγS binding, α2b (in words) [9]	stimulation of [35S]-GTPγS binding, α2c (in words) [10]	other results
CN1CCC(=C2c3ccccc3CCc3cccnc32)CC1 [Azatadine]	9 to 12	–	–	–	–	–	–	–	–	–
C[C@@H]1CN([C@H]2CC[C@](C#N)(c3ccc(F)cc3)CC2)CC[C@]1(C(=O)O)c1ccccc1 [Levocabastine]	–	–	–	–	–	–	–	–	–	duration of action ([2]; in vivo): 16 to 24 h
CNC[C@H](O)c1cccc(O)c1 [PE, (R)-(−)-phenylephrine, reference compound]	–	inhibits binding	increases intracellular calcium	inhibits [^3H]-UK14304 binding	increases intracellular calcium	inhibits [^3H]-UK14304 binding	inhibits binding	stimulates [^35S]-GTPγS binding	stimulates [^35S]-GTPγS binding	–
Clc1ccc2c(c1)CCc1cccnc1C2=C1CCNCC1 [desloratadine]	15 to 19	–	–	–	–	–	–	–	–	–
CCOC(=O)N1CCC(=C2c3ccc(Cl)cc3CCc3cccnc32)CC1 [loratadine]	–	–	–	–	–	–	–	–	–	time to begin to elicit antihistaminic effect ([2]; exemplary conventional formulation): 1 to 3 h
(R)-PE sulfate	–	No appreciable binding	minimal activity; also recorded: A very low level of activity	but not; also recorded: no appreciable binding	no and A very low level of activity	no appreciable binding	No appreciable binding	No activity	No activity	Ki ([3]; [3H]-prazosin, read-out: Ki, a1b Binding (class symbol)): > 100 µM; binding / affinity, α1b receptor (in words) ([3]; concentrations up to 100 μM): no affinity; increase in intracellular calcium, α1b calcium assay (in words) [4, 12]: induces minimal intracellular calcium increases; Ki ([5]; [3H]-UK14304, read-out: Ki, a2c Binding (class symbol)): > 100 µM; binding / affinity, α2c receptor (in words) [5, 13]: very minimal binding; also recorded: no affinity; increase in intracellular calcium, α1a calcium assay (in words) [6, 12]: induces minimal intracellular calcium increases; metabolite excreted in the urine [11]: 47 % of dose; Ki ([7]; [3H]-UK14304, read-out: Ki, a2b Binding (class symbol)): > 100 µM; binding / affinity, α2b receptor (in words) [7, 13]: very minimal binding; also recorded: no affinity; binding / affinity, α1a receptor (in words) ([8]; concentrations up to 100 μM): no affinity; activity in α2b [35S]-GTPγS assay (in words) ([9]; highest concentration, 100 μM): no activity; activity in α2c [35S]-GTPγS assay (in words) ([10]; highest concentration, 100 μM): no activity
